# Measurements from US4310682A, “Halo-salicylanilide” (priority 1979, dated 1982).
# Tests used:
# Format in all cases: cell-based
# [1] = tested on: Staphylococcus aureus FDA-209-P; assay: MIC, agar medium containing the compound; settings: bacterium No. 3, 37° C., 4 hours
# Protocol: (§1) In order to test antifungal and bactericidal activity of halo-salicylanilide obtained in above mentioned Examples, following bacteria and fungi are employed.
# No. 3 Staphylococcus aureus FDA-209-P
# (§2) Bacteria No. 1 to No. 4 are respectively cultured in Hart Infusion bouillon medium at 37° C. for 20 hours and resulting medium liquids are employed for said test. Fungi No. 5 to No. 7 are respectively cultured in Sabouraud agar medium and 10^6 cell/ml of cell dispersing liquids obtained from said medium are employed for said test.
# [2] = tested on: Escherichia coli NIHJ JC-2; assay: MIC, agar medium containing the compound; settings: bacterium No. 1, 37° C., 4 hours
# Protocol: as §1
# No. 1 Escherichia coli NIHJ JC-2
# as §2
# [3] = tested on: Candida albicans ATCC 10259; assay: MIC, Sabouraud agar medium containing the compound; settings: fungus No. 5, 20° C., 14 days
# Protocol: as §1
# No. 5 Candida albicans ATCC 10259
# as §2
# [4] = tested on: Aspergillus flavus IFO 8558; assay: MIC, Sabouraud agar medium containing the compound; settings: fungus No. 6, 20° C., 14 days
# Protocol: as §1
# No. 6 Aspergillus flavus IFO 8558
# as §2
# [5] = tested on: Trichophyton rubrum IFO 9185; assay: MIC, Sabouraud agar medium containing the compound; settings: fungus No. 7, 20° C., 14 days
# Protocol: as §1
# No. 7 Trichophyton rubrum IFO 9185
# as §2
# [6] = tested on: bacteria No. 1 to No. 4 and fungi No. 5 to No. 7; assay: Antifungal and bactericidal activity test, overall assessment of Table 8; settings: referring to Table 8
# Protocol: as §1, §2
# Referring now to Table 8, in said Examples the halo-salicylanilides provided have respectively remarkable higher antifungal and bactericidal activity than that of the contrasts proposed and said halo-salicylanilidesare especially effective on bacteria No. 3 and No. 4, and fungi No. 5, No. 6 and No. 7. This testifies that alkyl group of 2'-position of the halo-salicylanilides is significant for the activities of the compound. […] Especially the halo-salicylanilides having fluorine in 5-position are very useful for agricultural medicines.
# [7] = tested on: Bacillus subtilis PCI-219; assay: MIC, agar medium containing the compound; settings: bacterium No. 4, 37° C., 4 hours
# Protocol: as §1
# No. 4 Bacillus subtilis PCI-219
# as §2
# [8] = tested on: Candida albicans ATCC 10259; assay: Multiplying state after removal to compound-free medium (scanning electron microscope)
smiles,measurement,setting,value
"Cc1cc(Cl)ccc1NC(=O)c1cc(I)ccc1O [compound 3, 5-iodo-2'-methyl-4'-chloro salicylanilide]",MIC (Minimum Inhibitory Concentration),[1],0.75
same,MIC (Minimum Inhibitory Concentration),[2],> 100
same,MIC (Minimum Inhibitory Concentration),[3],6.3
same,MIC (Minimum Inhibitory Concentration),[4],6.3
same,MIC (Minimum Inhibitory Concentration),[5],6.3
same,antifungal and bactericidal activity (assessment in words),[6],remarkable antifungal and bactericidal activity
same,MIC (Minimum Inhibitory Concentration),[7],1.5
same,multiplying state of the fungi after removal to culture medium without the compound,"[8]; first cultured in medium containing the compound, then removed, FIG. 1 and FIG. 2",does not start to multiply
same,destruction of the cell membranes of the fungi,"[8]; scanning electron microscope, FIG. 2",destruction of the cell membranes of the fungi is observed
